{
  "source": "ChEMBL document CHEMBL2074507",
  "about": "“Transport of small organic cations in the rat liver. The role of the organic cation transporter OCT1” (Naunyn Schmiedebergs Arch Pharmacol, 1996)",
  "molecules": {"B1": {"name": "Solute carrier family 22 member 1 (Rattus norvegicus) (protein)", "chain": "MPTVDDVLEQVGEFGWFQKQAFLLLCLISASLAPIYVGIVFLGFTPGHYCQNPGVAELSQRCGWSQAEELNYTVPGLGPSDEASFLSQCMRYEVDWNQSTLDCVDPLSSLVANRSQLPLGPCEHGWVYDTPGSSIVTEFNLVCGDAWKVDLFQSCVNLGFFLGSLVVGYIADRFGRKLCLLVTTLVTSVSGVLTAVAPDYTSMLLFRLLQGMVSKGSWVSGYTLITEFVGSGYRRTTAILYQMAFTVGLVGLAGVAYAIPDWRWLQLAVSLPTFLFLLYYWFVPESPRWLLSQKRTTRAVRIMEQIAQKNGKVPPADLKMLCLEEDASEKRSPSFADLFRTPNLRKHTVILMYLWFSCAVLYQGLIMHVGATGANLYLDFFYSSLVEFPAAFIILVTIDRIGRIYPIAASNLVTGAACLLMIFIPHELHWLNVTLACLGRMGATIVLQMVCLVNAELYPTFIRNLGMMVCSALCDLGGIFTPFMVFRLMEVWQALPLILFGVLGLTAGAMTLLLPETKGVALPETIEEAENLGRRKSKAKENTIYLQVQTGKSSST"}},
  "key": {"[1]": {"molecular_target": "T1, Solute carrier family 22 member 1 (Rattus norvegicus, UniProt Q63089)", "T1 sequence (Q63089 whole entry)": "B1 chain", "experiment": "TP_TRANSPORTER: inhibition of MPP+ uptake in OCT1-expressing HEK293 cells", "assay_type": "functional, cell-based"}, "[2]": {"substrate": "C[n+]1ccc(-c2ccccc2)cc1", "experiment": "TP_TRANSPORTER: uptake in OCT1-expressing HEK293 cells", "assay_type": "functional, cell-based"}},
  "data": [
    {"molecule": "CCN1/C(=C/c2ccc3ccccc3[n+]2CC)C=Cc2ccccc21", "values": [
      {"measurement": "Ki", "setting": "[1]", "value": 0.5, "unit": "µM"}
    ]},
    {"molecule": "Clc1cccc(Cl)c1N=C1NCCN1", "note": "[CLONIDINE]", "values": [
      {"measurement": "Ki", "setting": "[1]", "value": 1.4, "unit": "µM"}
    ]},
    {"molecule": "C[C@]12C[C@H](O)[C@H]3[C@@H](CCC4=CC(=O)CC[C@@]43C)[C@@H]1CC[C@@H]2C(=O)CO", "note": "[CORTICOSTERONE]", "values": [
      {"measurement": "Ki", "setting": "[1]", "value": 72, "unit": "µM"}
    ]},
    {"molecule": "CC[n+]1c(CC2C=C(C)N=C(c3ccccc3)N2C)ccc2ccccc21", "note": "(configuration not stated) [Cyanine-863]", "values": [
      {"measurement": "Ki", "setting": "[1]", "value": 0.67, "unit": "µM"}
    ]},
    {"molecule": "CC(C)N1/C(=C\\c2cc[n+](C(C)C)c3ccccc23)C=Cc2ccccc21", "note": "[DISPROCYNIUM24]", "values": [
      {"measurement": "Ki", "setting": "[1]", "value": 0.11, "unit": "µM"}
    ]},
    {"molecule": "COc1cc(C(O)CNC(C)C)ccc1O", "note": "(configuration not stated) [METIPRENALINE]", "values": [
      {"measurement": "Ki", "setting": "[1]", "value": 25, "unit": "µM"}
    ]},
    {"molecule": "B1", "values": [
      {"measurement": "Km", "setting": "[2]", "value": 13, "unit": "µM"}
    ]}
  ]
}
